Target: T1, DEBS AT3 (Saccharopolyspora erythraea, UniProt Q03132)
T1 sequence (Q03132 460-880 limits assumed): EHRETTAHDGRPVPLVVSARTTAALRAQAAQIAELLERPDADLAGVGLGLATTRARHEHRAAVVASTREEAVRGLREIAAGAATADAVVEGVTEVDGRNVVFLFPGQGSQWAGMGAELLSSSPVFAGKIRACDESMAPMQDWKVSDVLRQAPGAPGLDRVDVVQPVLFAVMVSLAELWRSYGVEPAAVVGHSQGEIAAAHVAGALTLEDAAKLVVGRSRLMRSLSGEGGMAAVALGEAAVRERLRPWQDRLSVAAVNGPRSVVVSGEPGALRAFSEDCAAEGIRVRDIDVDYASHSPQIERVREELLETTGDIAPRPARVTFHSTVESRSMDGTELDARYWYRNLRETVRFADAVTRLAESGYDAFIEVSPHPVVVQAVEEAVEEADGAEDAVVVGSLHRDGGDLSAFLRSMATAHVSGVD
Experiment: alpha-KGDH coupled fluorometric NADH assay, hydrolysis
Assay type: biochemical
Conditions: no ACP, pH 7.6, 10% glycerol

## CC(C(=O)O)C(=O)SCCNC(=O)CCNC(=O)[C@H](O)C(C)(C)COP(=O)(O)OP(=O)(O)OC[C@H]1O[C@@H](n2cnc3c(N)ncnc32)[C@H](O)[C@@H]1OP(=O)(O)O (stereo partly shown) [MMCoA, methylmalonyl-CoA]
  alpha-KGDH coupled fluorometric NADH assay, hydrolysis: DEBS AT3 showed the highest rate of hydrolysis with its natural substrate, methylmalonyl-CoA
